Marks after values point to notes of the source that are not given here.
Key:
ICR male mice = assay: Passive avoidance test (learning and memory); format: in vivo; conditions: for Latent time (retention latency to cross into the dark compartment): intraperitoneally 46 μmol/kg 60 min before the training trial, retention test 24 hours later, cut-off 300 s, mean±S.E.M, n≧10
Method: Passive avoidance test was performed in a shuttle-box apparatus (Ugo Basile, Italy) with two communicating compartments of equal size (20×10×16 cm) and a stainless steel grid floor (bars spaced 0.7 cm apart). The right-hand compartment (shock compartment) was painted black to obtain a dark chamber. The left-hand compartment was painted white and illuminated by a bulb (100 W) installed on the top of plexiglass cover. These compartments were separated by a guillotine door (5×4 cm). On day 1 (training trial), mice were placed in the illuminated compartment and the door between the two compartments was opened 60 s later. When mice entered the dark compartment with all four feet, the door automatically closed and an inescapable electrical foot shock (0.1 mA; 3 s) was delivered through the grid floor. Latency to cross into the dark compartment (training latency) was automatically measured. The retention test was performed 24 hours later (day 2). Mice were placed into the light (safe) compartment, with access to the dark one (within 10 s) for a period of 300 s (cut-off time). The latency to cross into the dark compartment with all four feet was automatically measured (retention latency).
Effects of 2-(4R-phenyl-2-oxopyrrolidin-1-yl)acetamide), racemic 2-(5-methyl-2-oxo-4-phenyl-pyrrolidin-1-yl)-acetamide and 2-(5S-methyl-2-oxo-4R-phenyl-pyrrolidin-1-yl)-acetamide on retention of passive avoidance response (memory) in ICR male mice.
The compounds were administered intraperitoneally at the dose of 46 μmol/kg 60 min before the training trial (day 1). The saline control group was run concurrently with the drug-treated groups. The statistical analysis was performed by Student's t-test. Data represent mean±S.E.M *p<0.05, ^#p<0.05, ^$p<0.05 versus saline control group, 2-(4R-phenyl-2-oxopyrrolidin-1-yl)acetamide-treated group and racemic2-(5-methyl-2-oxo-4-phenyl-pyrrolidin-1-yl)-acetamide-treated group, respectively; n≧10

Row | Compound | Latent time (retention latency to cross into the dark compartment) (ICR male mice) | effect on memory in the passive avoidance task (ICR male mice; dose of 46 μmol/kg, Student's t-test) | melting point
1 | CC1C(c2ccccc2)CC(=O)N1CC(N)=O (racemic) [2-(5-methyl-2-oxo-4-phenyl-pyrrolidin-1-yl)-acetamide racemic, 2-(5-methyl-2-oxo-4-phenyl-pyrrolidin-1-yl)-acetamide] | 74.2 ± 19.9 s |  | 
2 | C[C@H]1[C@@H](c2ccccc2)CC(=O)N1CC(N)=O [2-(5S-methyl-2-oxo-4R-phenyl-pyrrolidin-1-yl)-acetamide] | 170.6 ± 41.9* ^#$ s | statistically significant effect on memory | 169 to 171 °C
3 | NC(=O)CN1C[C@@H](c2ccccc2)CC1=O [2-(4R-phenyl-2-oxopyrrolidin-1-yl)acetamide, reference compound] | 94.9 ± 27.6 s |  | 
